Experimental findings from PubChem BioAssay AID328 (DTP/NCI, 2004) are described below.

Inconclusive results and toxic doses are left out.

The experiment deals with BDF1 mice, P388 leukemia ip, median survival T/C. Put plainly: NCI In Vivo Anticancer Drug Screen. Data for tumor model P388 Leukemia (intraperitoneal) in B6D2F1 (BDF1) mice. The note with it: endpoint: median survival time, higher = longer survival. In a few lines:
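Read-out is survival of treated animals expressed relative to the vehicle group, as a T/C ratio.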

Where [1] appears, read: dose: 25.0 mg/kg/injection, schedule: Q04DX003 (ip), vehicle: Klucel (hydroxypropylcellulose) (HPC).
Where [2] appears, read: dose: 50.0 mg/kg/injection, schedule: Q04DX003 (ip), vehicle: Klucel (hydroxypropylcellulose) (HPC).
The mark [3] stands for this setting: dose: 100.0 mg/kg/injection, schedule: Q04DX003 (ip), vehicle: Klucel (hydroxypropylcellulose) (HPC).
Where [4] appears, read: dose: 200.0 mg/kg/injection, schedule: Q04DX003 (ip), vehicle: Klucel (hydroxypropylcellulose) (HPC).
Where [5] appears, read: dose: 400.0 mg/kg/injection, schedule: Q04DX003 (ip), vehicle: Klucel (hydroxypropylcellulose) (HPC).
[6] abbreviates: dose: 50.0 mg/kg/injection, schedule: Q04DX003 (ip), vehicle: saline with Tween-80.
The mark [7] stands for this setting: dose: 100.0 mg/kg/injection, schedule: Q01DX009 (ip), vehicle: saline with Tween-80.
The mark [8] stands for this setting: dose: 200.0 mg/kg/injection, schedule: Q01DX009 (ip), vehicle: saline with Tween-80.
Where [9] appears, read: dose: 400.0 mg/kg/injection, schedule: Q01DX009 (ip), vehicle: saline with Tween-80.
Setting [10] is: dose: 50.0 mg/kg/injection, schedule: Q01DX009 (ip), vehicle: saline with Tween-80.
Where [11] appears, read: dose: 100.0 mg/kg/injection, schedule: Q04DX003 (ip), vehicle: saline with Tween-80.
Setting [12] is: dose: 200.0 mg/kg/injection, schedule: Q04DX003 (ip), vehicle: saline with Tween-80.
The mark [13] stands for this setting: dose: 100.0 mg/kg/injection, schedule: Q01DX001 (ip), vehicle: saline with Tween-80.

For the molecule `C[N+]12CCCc3cc(CO)cc(c31)CCC2`, the T/C (dose: 12.5 mg/kg/injection, schedule: Q04DX003 (ip), vehicle: Klucel (hydroxypropylcellulose) (HPC)) is 103 % of control; the T/C under setting [1] was 100 % of control; the T/C under setting [2] is 119 % of control.
Regarding `CN(N=O)c1ccc(/C=C/c2ccnc3ccccc23)cc1`, the T/C (dose: 100.0 mg/kg/injection, schedule: Q01DX009 (ip), vehicle: saline sonified) is 115 % of control.
With `NC(=S)Nc1cccc(Cl)c1`, the T/C is 118 % of control under setting [1], 104 % of control under setting [2] and 104 % of control under setting [3].
For the molecule `[Cl][Hg][CH]1CCCC2OC(C(Cl)(Cl)Cl)OC21` (configuration not stated), the T/C was 111 % of control (dose: 0.2 mg/kg/injection, schedule: Q01DX001 (ip), vehicle: saline with Tween-80); 109 % of control (dose: 0.4 mg/kg/injection, schedule: Q01DX001 (ip), vehicle: saline with Tween-80); 101 % of control (dose: 0.78 mg/kg/injection, schedule: Q01DX001 (ip), vehicle: saline with Tween-80); 109 % of control (dose: 0.8 mg/kg/injection, schedule: Q01DX001 (ip), vehicle: saline with Tween-80); 116 % of control (dose: 1.6 mg/kg/injection, schedule: Q01DX001 (ip), vehicle: saline with Tween-80).
As to `CCN(Cc1ccccc1)c1ccc(/C=C/c2nccc3ccccc23)cc1`, the T/C by setting is: (dose: 100.0 mg/kg/injection, schedule: Q04DX002 (ip), vehicle: saline with Tween-80) 116 % of control; (dose: 200.0 mg/kg/injection, schedule: Q04DX002 (ip), vehicle: saline with Tween-80) 116 % of control; (dose: 266.0 mg/kg/injection, schedule: Q04DX002 (ip), vehicle: saline with Tween-80) 89 % of control; (dose: 400.0 mg/kg/injection, schedule: Q04DX002 (ip), vehicle: saline with Tween-80) 123 % of control; (dose: 600.0 mg/kg/injection, schedule: Q04DX002 (ip), vehicle: saline with Tween-80) 117 % of control.
`CC1(C)N=C(N)Nc2nnc(-c3cccc(Cl)c3)n21`: the T/C reads like this: (dose: 100.0 mg/kg/injection, schedule: Q01DX001 (ip), vehicle: saline sonified) 105 % of control; (dose: 200.0 mg/kg/injection, schedule: Q01DX001 (ip), vehicle: saline sonified) 100 % of control; (dose: 400.0 mg/kg/injection, schedule: Q01DX001 (ip), vehicle: saline sonified) 100 % of control.
`CS(=O)(=O)Nc1ccc(NS(C)(=O)=O)c(SCc2ccccc2)c1`: the T/C (dose: 100.0 mg/kg/injection, schedule: Q01DX001 (ip), vehicle: Klucel (hydroxypropylcellulose) (HPC)) was 100 % of control; the T/C (dose: 200.0 mg/kg/injection, schedule: Q01DX001 (ip), vehicle: Klucel (hydroxypropylcellulose) (HPC)) is 100 % of control; the T/C (dose: 400.0 mg/kg/injection, schedule: Q01DX001 (ip), vehicle: Klucel (hydroxypropylcellulose) (HPC)) was 100 % of control.
In the case of `O=C(C(=O)C(Br)Br)C(Br)Br`, the T/C (dose: 6.25 mg/kg/injection, schedule: Q01DX009 (ip), vehicle: DMSO) was 97 % of control.
As to `CN(C)c1ccc(/C=C/c2nc3ccccc3o2)cc1`, the T/C was 90 % of control under setting [3], 90 % of control under setting [4] and 100 % of control under setting [5].
As for `ClC1=NC(Cl)C(Cl)=N/C1=N\c1ncn[nH]1` (configuration not stated), the T/C is 110 % of control (dose: 6.25 mg/kg/injection, schedule: Q01DX009 (ip), vehicle: saline with Tween-80); 113 % of control (dose: 22.0 mg/kg/injection, schedule: Q04DX003 (ip), vehicle: saline with Tween-80); 118 % of control under setting [6]; 90 % of control (dose: 75.0 mg/kg/injection, schedule: Q04DX003 (ip), vehicle: saline with Tween-80).
Regarding `CC1(c2ccco2)NC(=O)NC1=O` (configuration not stated), the T/C runs as follows: under setting [7], 105 % of control; under setting [8], 105 % of control; under setting [9], 105 % of control.
For the molecule `COC1/C=C/O[C@@]2(C)Oc3c(C)c(O)c4c(O)c(cc(O)c4c3C2=O)NC(=O)/C(C)=C\C=C\[C@H](C)C(O)[C@@H](C)[C@@H](O)[C@@H](C)[C@H](OC(C)=O)[C@@H]1C` (some centres not stated), the T/C was 123 % of control (dose: 100.0 mg/kg/injection, schedule: Q01DX009 (ip), vehicle: saline); 114 % of control (dose: 200.0 mg/kg/injection, schedule: Q01DX009 (ip), vehicle: saline); 119 % of control (dose: 400.0 mg/kg/injection, schedule: Q01DX009 (ip), vehicle: saline).
Regarding `S=C1NC2=S(N=C(Nc3ccccc3)N2c2ccccc2)S1` (configuration not stated), the T/C was 94 % of control under setting [10], 96 % of control under setting [7] and 93 % of control under setting [8].
Regarding `C=CCNC(=S)Nc1ccc(N(C)C)cc1`, the T/C runs as follows: under setting [6], 100 % of control; under setting [11], 95 % of control; under setting [12], 109 % of control.
With `C(#CCN1CCOCC1)CCCN1CCOCC1`, the T/C runs as follows: (dose: 100.0 mg/kg/injection, schedule: Q04DX003 (ip), vehicle: saline) 95 % of control; (dose: 200.0 mg/kg/injection, schedule: Q04DX003 (ip), vehicle: saline) 100 % of control; (dose: 400.0 mg/kg/injection, schedule: Q04DX003 (ip), vehicle: saline) 100 % of control.
Consider `CC(C)(O)c1ccccc1[S+]1OC(C)(C)c2ccccc21` (configuration not stated), for which the T/C runs as follows: under setting [13], 98 % of control; (dose: 100.0 mg/kg/injection, schedule: Q01DX001 (ip), vehicle: saline) 100 % of control; (dose: 200.0 mg/kg/injection, schedule: Q01DX001 (ip), vehicle: saline with Tween-80) 103 % of control; (dose: 200.0 mg/kg/injection, schedule: Q01DX001 (ip), vehicle: saline) 102 % of control; (dose: 400.0 mg/kg/injection, schedule: Q01DX001 (ip), vehicle: saline with Tween-80) 118 % of control; (dose: 400.0 mg/kg/injection, schedule: Q01DX001 (ip), vehicle: saline) 117 % of control.
On to `COc1cccc2c1C(=O)c1c(O)c3c(c(O)c1C2=O)CC(O)(/C(C)=N/NC(=O)CC(=O)N/N=C(\C)C1(O)Cc2c(O)c4c(c(O)c2C(OC2CC(N)C(O)C(C)O2)C1)C(=O)c1c(OC)cccc1C4=O)CC3OC1CC(N)C(O)C(C)O1` (configuration not stated), for which the T/C was 157 % of control (dose: 3.13 mg/kg/injection, schedule: Q01DX009 (ip), vehicle: water) and 186 % of control (dose: 6.25 mg/kg/injection, schedule: Q01DX009 (ip), vehicle: water).
Regarding `CCN(CC)P(Cl)(C1=C(Cl)C(=O)C(C#N)=C(C#N)C1=O)(N(CC)CC)N(CC)CC`, the T/C by setting is: (dose: 25.0 mg/kg/injection, schedule: Q01DX001 (ip), vehicle: saline with Tween-80) 97 % of control; (dose: 50.0 mg/kg/injection, schedule: Q01DX001 (ip), vehicle: saline with Tween-80) 95 % of control; under setting [13], 95 % of control.
As to `CCCCCCCCCCCCN1C(=O)[N+](C)(C)N=C1[O-]`, the T/C is, setting by setting: (dose: 25.0 mg/kg/injection, schedule: Q01DX009 (ip), vehicle: saline with Tween-80) 90 % of control; under setting [10], 90 % of control; under setting [7], 92 % of control.
`N#Cc1ccc(/C=C/C(=O)c2ccccc2)cc1`: the T/C is 91 % of control (dose: 100.0 mg/kg/injection, schedule: Q01DX009 (ip), vehicle: Klucel (hydroxypropylcellulose) (HPC)); 116 % of control (dose: 200.0 mg/kg/injection, schedule: Q01DX009 (ip), vehicle: Klucel (hydroxypropylcellulose) (HPC)); 107 % of control (dose: 400.0 mg/kg/injection, schedule: Q01DX009 (ip), vehicle: Klucel (hydroxypropylcellulose) (HPC)).
`O=C(/C(=N/Nc1ccccc1)c1ccccc1)c1ccccc1`: the T/C by setting is: under setting [3], 104 % of control; under setting [4], 100 % of control; under setting [5], 113 % of control.
As for `COc1cc(OC)cc(C(=O)Br)c1`, the T/C by setting is: under setting [7], 91 % of control; under setting [11], 90 % of control; under setting [8], 91 % of control; under setting [12], 90 % of control; under setting [9], 91 % of control; (dose: 400.0 mg/kg/injection, schedule: Q04DX003 (ip), vehicle: saline with Tween-80) 95 % of control.
